Data published in the NIST ThermoML archive (doi:10.1021/je2010038).

Test: xn = mol fraction of the nth substance listed
Conditions: for mass density: 101 kPa, Liquid, Vibrating tube method; for surface tension liquid-gas: Pendant drop shape

NCCO [2-aminoethan-1-ol] + O
Conditions	mass density [kg/m3]	surface tension liquid-gas [mN/m]
298.15 K, x1 = 0.1122	1010.9	–
298.15 K, x1 = 0.1643	1016.3	–
298.15 K, x1 = 0.2278	1021.3	–
298.15 K, x1 = 0.3067	1024.8	–
298.15 K, x1 = 0.4077	1026.3	–
298.15 K, x1 = 0.5412	1024.7	–
298.15 K, x1 = 0.7264	1020	–
298.15 K, x1 = 1	1011.9	–
303.15 K, x1 = 0.032	–	66.75
303.15 K, x1 = 0.069	–	64.74
303.15 K, x1 = 0.112	–	63.58
303.15 K, x1 = 0.1122	1008.4	–
303.15 K, x1 = 0.164	–	61.74
303.15 K, x1 = 0.1643	1013.8	–
303.15 K, x1 = 0.2278	1018.2	–
303.15 K, x1 = 0.228	–	59.27
303.15 K, x1 = 0.3067	1021.4	–
303.15 K, x1 = 0.307	–	57.42
303.15 K, x1 = 0.407	–	55.78
303.15 K, x1 = 0.4077	1022.8	–
303.15 K, x1 = 0.541	–	53.43
303.15 K, x1 = 0.5412	1021	–
303.15 K, x1 = 0.726	–	50.59
303.15 K, x1 = 0.7264	1016.2	–
303.15 K, x1 = 1	1008	48.13
308.15 K, x1 = 0.1122	1006.2	–
308.15 K, x1 = 0.1643	1011	–
308.15 K, x1 = 0.2278	1015.2	–
308.15 K, x1 = 0.3067	1018.2	–
308.15 K, x1 = 0.4077	1019.3	–
308.15 K, x1 = 0.5412	1017.3	–
308.15 K, x1 = 0.7264	1012.3	–
308.15 K, x1 = 1	1004	–
313.15 K, x1 = 0.032	–	65.51
313.15 K, x1 = 0.069	–	63.29
313.15 K, x1 = 0.112	–	62.55
313.15 K, x1 = 0.1122	1003.5	–
313.15 K, x1 = 0.164	–	60.27
313.15 K, x1 = 0.1643	1008.3	–
313.15 K, x1 = 0.2278	1012.1	–
313.15 K, x1 = 0.228	–	58.19
313.15 K, x1 = 0.3067	1014.7	–
313.15 K, x1 = 0.307	–	56.35
313.15 K, x1 = 0.407	–	54.82
313.15 K, x1 = 0.4077	1015.7	–
313.15 K, x1 = 0.541	–	52.41
313.15 K, x1 = 0.5412	1013.5	–
313.15 K, x1 = 0.726	–	49.63
313.15 K, x1 = 0.7264	1008.5	–
313.15 K, x1 = 1	1000	46.66
318.15 K, x1 = 0.1122	1001.1	–
318.15 K, x1 = 0.1643	1005.3	–
318.15 K, x1 = 0.2278	1009	–
318.15 K, x1 = 0.3067	1011.4	–
318.15 K, x1 = 0.4077	1012	–
318.15 K, x1 = 0.5412	1009.7	–
318.15 K, x1 = 0.7264	1004.5	–
318.15 K, x1 = 1	996	–
323.15 K, x1 = 0.032	–	64.31
323.15 K, x1 = 0.069	–	61.72
323.15 K, x1 = 0.112	–	61.16
323.15 K, x1 = 0.1122	998.1	–
323.15 K, x1 = 0.164	–	58.82
323.15 K, x1 = 0.1643	1002.3	–
323.15 K, x1 = 0.2278	1005.6	–
323.15 K, x1 = 0.228	–	56.85
323.15 K, x1 = 0.3067	1007.8	–
323.15 K, x1 = 0.307	–	55.15
323.15 K, x1 = 0.407	–	53.4
323.15 K, x1 = 0.4077	1008.3	–
323.15 K, x1 = 0.541	–	51.14
323.15 K, x1 = 0.5412	1005.9	–
323.15 K, x1 = 0.726	–	48.42
323.15 K, x1 = 0.7264	1000.6	–
323.15 K, x1 = 1	992	45.58
328.15 K, x1 = 0.1122	995.5	–
328.15 K, x1 = 0.1643	999.2	–
328.15 K, x1 = 0.2278	1002.4	–
328.15 K, x1 = 0.3067	1004.4	–
328.15 K, x1 = 0.4077	1004.6	–
328.15 K, x1 = 0.5412	1002	–
328.15 K, x1 = 0.7264	996.7	–
328.15 K, x1 = 1	988	–
333.15 K, x1 = 0.032	–	62.46
333.15 K, x1 = 0.069	–	60.07
333.15 K, x1 = 0.112	–	59.39
333.15 K, x1 = 0.1122	992.3	–
333.15 K, x1 = 0.164	–	57.29
333.15 K, x1 = 0.1643	996.1	–
333.15 K, x1 = 0.2278	999	–
333.15 K, x1 = 0.228	–	55.39
333.15 K, x1 = 0.3067	1000.7	–
333.15 K, x1 = 0.307	–	53.61
333.15 K, x1 = 0.407	–	51.77
333.15 K, x1 = 0.541	–	49.62
333.15 K, x1 = 0.726	–	47
333.15 K, x1 = 1	–	44.63
